# Reference: patent US8962528B2, “Penoxsulam as an herbicide in alfalfa” (Dow AgroSciences, LLC., priority 2011, dated 2015)
# Tests used:
# [1] = test system: STEME = Stellaria media, chickweed; experiment: Field trial of weed control in dormant alfalfa; type: in vivo; conditions: for Control % Visual STEME: 45 DAAA, POST, NOV/JAN
# Procedure: (§1) A field trial (California) was conducted in field-grown alfalfa using standard herbicide small plot research methodology. Plots were 7.5 ft by 20 ft long with 4 replicates per treatment. The alfalfa crop was already established the previous season and was grown using normal cultural practices for fertilization, seeding, watering, and maintenance to ensure good growth of the crop. All treatments in the field trials were applied using a CO2 backpack sprayer calibrated to apply 187 L/ha spray volume. Commercially available product of penoxsulam was mixed in water at appropriate formulated product rates to achieve the desired rates based on a unit area of application (hectare). Treatments were sprayed as a postemergence application to the soil when alfalfa was in the late dormant stage of growth. “Late dormant” growth stage is defined as when the crop is not actively growing during the winter season and just prior to emerging from dormancy and starting new growth for the growing season. Treatments were rated at 26 to 63 days after the application as compared to the untreated control plants, when the alfalfa crop was no longer dormant. Visual crop injury ratings were scored on a scale of 0 to 100 where 0 corresponds to no injury and 100 corresponds to complete control.
# [2] = test system: CAPBP = Capsella bursa-pastoris, Shepherd's purse; experiment: Field trial of weed control in dormant alfalfa; type: in vivo; conditions: for Control % Visual CAPBP: 45 DAAA, POST, NOV/JAN
# Procedure: as §1
# [3] = test system: POAAN = Poa annua, annual bluegrass; experiment: Field trial of weed control in dormant alfalfa; type: in vivo; conditions: for Control % Visual POAAN: 45 DAAA, POST, NOV/JAN
# Procedure: as §1
# alfalfa = conditions: in vivo
# Procedure: as §1
# [4] = 35 gr ai/ha + AGRI-DEX COC 2.33 liter/ha
# [5] = 70 gr ai/ha + AGRI-DEX COC 2.33 liter/ha
# [6] = 140 gr ai/ha + AGRI-DEX COC 2.33 liter/ha
# [7] = 45DAAA, all rates, burndown and/or residual activity
smiles,measurement,setting,value
COc1cnc(OC)n2nc(NS(=O)(=O)c3c(OCC(F)F)cccc3C(F)(F)F)nc12 [PENOXSULAM],Control % Visual STEME,[1]; [4],100 a % Visual
same,Control % Visual STEME,[1]; [5],100 a % Visual
same,Control % Visual STEME,[1]; [6],100 a % Visual
same,control of STEME (chickweed),[1]; [7],100%
same,Control % Visual CAPBP,[2]; [4],100 a % Visual
same,Control % Visual CAPBP,[2]; [5],100 a % Visual
same,Control % Visual CAPBP,[2]; [6],100 a % Visual
same,control of CAPBP (Sheperd's purse),[2]; [7],100%
same,Control % Visual POAAN,[3]; [4],65 b % Visual
same,Control % Visual POAAN,[3]; [5],79 ab % Visual
same,Control % Visual POAAN,[3]; [6],91 a % Visual
same,control of grass weed POAAN (annual bluegrass),"[3]; 45DAAA, dependent on the rate applied",significant suppression/partial control
same,% Visual Injury of alfalfa compared to the Untreated,alfalfa,some slight visual injury
same,alfalfa growth (% Visual Regrowth) as compared to the Untreated,alfalfa,no effect
same,alfalfa regrowth as compared to the Untreated,alfalfa,no significant difference
